Tested on: PLA2 derived from plasma, sperm, platelets, human synovial fluid and N. naja cobra venom
Assay: In vitro inhibition of PLA2 from a variety of sources (FIG. 8)
Assay type: biochemical

CCCCCCC(C/C=C\CCCCCCCC(=O)O)OC(=O)CCCCCCCCC(=O)O (stereo not shown) [RISE-1, Ricinoleic Acid--Sebacyl Ester]
in vitro inhibition of PLA2 from different sources: dose related, selective in vitro inhibition
